Results taken from ChEMBL document CHEMBL1201862, “PubChem BioAssay data set” (2004).
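In this assay, cells in 96-well plates receive the compound at five concentrations for 48 hours. Endpoints are linearly interpolated between the surrounding concentrations. GI50 = concentration required for 50% inhibition of growth.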 Calls of active or inactive are those of the source. Rule as the data show it: active = GI50 up to about 1.1 µM and inactive = higher.

Tests used:
Assay in all cases: inhibition of tumour cell growth, NCI panel, 48 h
[1] = test system: IGROV-1
[2] = test system: EKVX
[3] = test system: MDA-MB-231
[4] = test system: U-251
[5] = test system: OVCAR-8
[6] = test system: NCI-H226
[7] = test system: UACC-62
[8] = test system: SNB-75
[9] = test system: ACHN
[10] = test system: RPMI-8226
[11] = test system: CAKI-1
[12] = test system: NCI-H522
[13] = test system: DU-145
[14] = test system: BT-549
[15] = test system: UACC-257
[16] = test system: HT-29
[17] = test system: NCI/ADR-RES
[18] = test system: KM12
[19] = test system: RXF 393
[20] = test system: A498

Compound | GI50 [1] | GI50 [2] | GI50 [3] | GI50 [4] | GI50 [5] | GI50 [6] | GI50 [7] | GI50 [8] | GI50 [9] | GI50 [10] | GI50 [11] | GI50 [12] | GI50 [13] | GI50 [14] | GI50 [15] | GI50 [16] | GI50 [17] | GI50 [18] | GI50 [19] | GI50 [20]
O=C1C=CC(=C(c2ccccc2)c2ccc(O)cc2)C=C1 | 8.41 µM (inactive) | 13.7 µM (inactive) | 15.2 µM (inactive) | 12.4 µM (inactive) | 16.9 µM (inactive) | 19.5 µM (inactive) | 14.1 µM (inactive) | 16.9 µM (inactive) | 19.4 µM (inactive) | 9.12 µM (inactive) | 17.3 µM (inactive) | 13.7 µM (inactive) | 17.4 µM (inactive) | 6.03 µM (inactive) | 16.9 µM (inactive) | 20.7 µM (inactive) | 32.7 µM (inactive) | 19.4 µM (inactive) | 14.2 µM (inactive) | –
COc1ccc(NC(=S)N/N=C/c2c(C)n(C)n(-c3ccccc3)c2=O)cc1 | 47.5 µM (inactive) | 42.8 µM (inactive) | 17.5 µM (inactive) | 20.4 µM (inactive) | 20.7 µM (inactive) | 35.6 µM (inactive) | 51.1 µM (inactive) | 28 µM (inactive) | 34.7 µM (inactive) | > 100 µM (inactive) | 22 µM (inactive) | – | – | 43.7 µM (inactive) | > 100 µM (inactive) | 69.5 µM (inactive) | 42.9 µM (inactive) | > 100 µM (inactive) | 23 µM (inactive) | 17.2 µM (inactive)
Cc1cc2nc3ccccc3n2c2ccccc12 | > 10 µM (inactive) | 1.81 µM (inactive) | > 10 µM (inactive) | > 10 µM (inactive) | > 10 µM (inactive) | 6.17 µM (inactive) | > 10 µM (inactive) | > 10 µM (inactive) | > 10 µM (inactive) | > 10 µM (inactive) | > 10 µM (inactive) | > 10 µM (inactive) | > 10 µM (inactive) | – | > 10 µM (inactive) | > 10 µM (inactive) | > 10 µM (inactive) | > 10 µM (inactive) | > 10 µM (inactive) | –
[N-]=[N+]=Nc1c(Cl)c(=O)n(-c2ccccc2)c2ccccc12 | 15.6 µM (inactive) | – | – | > 10 µM (inactive) | – | – | 15.1 µM (inactive) | 18.5 µM (inactive) | 21.5 µM (inactive) | 34 µM (inactive) | 21.7 µM (inactive) | – | 29.2 µM (inactive) | 19.9 µM (inactive) | 24.2 µM (inactive) | 23.2 µM (inactive) | 24.2 µM (inactive) | 39.5 µM (inactive) | 16.4 µM (inactive) | –
Cc1cc(C)nc(NS(=O)(=O)c2ccc(NNc3c4ccccc4nc4c(C(=O)Nc5ccc(S(=O)(=O)N=C(N)N)cc5)cccc34)cc2)n1 | 53 µM (inactive) | 30.5 µM (inactive) | 49.1 µM (inactive) | 25.4 µM (inactive) | 52.4 µM (inactive) | 49.7 µM (inactive) | – | 28.4 µM (inactive) | 45 µM (inactive) | 93.3 µM (inactive) | > 100 µM (inactive) | 36.6 µM (inactive) | 65.8 µM (inactive) | 56 µM (inactive) | > 100 µM (inactive) | 26.6 µM (inactive) | > 100 µM (inactive) | 34.7 µM (inactive) | > 100 µM (inactive) | –
COc1cc2c(oc(=O)c3c4occc4cc(OC)c23)c2cccc(OCc3ccccc3)c12 | > 100 µM (inactive) | > 100 µM (inactive) | – | > 100 µM (inactive) | > 100 µM (inactive) | > 100 µM (inactive) | 86.1 µM (inactive) | 40 µM (inactive) | > 100 µM (inactive) | > 100 µM (inactive) | > 100 µM (inactive) | > 100 µM (inactive) | – | – | > 100 µM (inactive) | > 100 µM (inactive) | – | > 100 µM (inactive) | 78.3 µM (inactive) | 34.4 µM (inactive)
C=CCN(N=O)C(=O)NCCCCC(NC(C)=O)C(=O)NCc1ccccc1 (centres undefined) | > 100 µM (inactive) | > 100 µM (inactive) | – | > 100 µM (inactive) | > 100 µM (inactive) | 42.5 µM (inactive) | > 100 µM (inactive) | > 100 µM (inactive) | > 100 µM (inactive) | > 100 µM (inactive) | > 100 µM (inactive) | > 100 µM (inactive) | – | – | > 100 µM (inactive) | > 100 µM (inactive) | – | > 100 µM (inactive) | > 100 µM (inactive) | > 100 µM (inactive)
CCOC1C=CCCO1 (centres undefined) | > 100 µM (inactive) | > 100 µM (inactive) | > 100 µM (inactive) | – | > 100 µM (inactive) | > 100 µM (inactive) | > 100 µM (inactive) | > 100 µM (inactive) | > 100 µM (inactive) | > 100 µM (inactive) | > 100 µM (inactive) | > 100 µM (inactive) | > 100 µM (inactive) | – | > 100 µM (inactive) | > 100 µM (inactive) | > 100 µM (inactive) | > 100 µM (inactive) | > 100 µM (inactive) | > 100 µM (inactive)
Cc1cc(=O)[nH]c(-n2[nH]c(C)c(CCO)c2=O)n1 | > 100 µM (inactive) | > 100 µM (inactive) | > 100 µM (inactive) | > 100 µM (inactive) | > 100 µM (inactive) | > 100 µM (inactive) | > 100 µM (inactive) | – | > 100 µM (inactive) | > 100 µM (inactive) | > 100 µM (inactive) | > 100 µM (inactive) | > 100 µM (inactive) | – | > 100 µM (inactive) | > 100 µM (inactive) | > 100 µM (inactive) | > 100 µM (inactive) | > 100 µM (inactive) | > 100 µM (inactive)
N#CCC1C2CC3C(C2=O)C13 (centres undefined) | > 100 µM (inactive) | > 100 µM (inactive) | > 100 µM (inactive) | > 100 µM (inactive) | > 100 µM (inactive) | > 100 µM (inactive) | > 100 µM (inactive) | > 100 µM (inactive) | > 100 µM (inactive) | > 100 µM (inactive) | > 100 µM (inactive) | > 100 µM (inactive) | > 100 µM (inactive) | – | > 100 µM (inactive) | > 100 µM (inactive) | > 100 µM (inactive) | > 100 µM (inactive) | > 100 µM (inactive) | > 100 µM (inactive)
c1ccc2c(c1)n1nnnc1c1nnnn21 | > 100 µM (inactive) | > 100 µM (inactive) | – | > 100 µM (inactive) | 92.7 µM (inactive) | > 100 µM (inactive) | > 100 µM (inactive) | 24.6 µM (inactive) | > 100 µM (inactive) | > 100 µM (inactive) | > 100 µM (inactive) | 12.6 µM (inactive) | – | – | > 100 µM (inactive) | > 100 µM (inactive) | – | > 100 µM (inactive) | 87.3 µM (inactive) | > 100 µM (inactive)
Cc1cccc(Nc2cn(CCOc3ccccc3)c(=O)[nH]c2=O)c1 | 16.7 µM (inactive) | 11.3 µM (inactive) | – | 33.7 µM (inactive) | – | – | 46.6 µM (inactive) | – | 33.2 µM (inactive) | 34 µM (inactive) | 41.2 µM (inactive) | – | 28.5 µM (inactive) | – | 43.7 µM (inactive) | – | 1.73 µM (inactive) | 31.3 µM (inactive) | 34.8 µM (inactive) | > 100 µM (inactive)
Cc1c(S(=O)(=O)N/C(=N\O)Nc2ccc(Cl)cc2)sc2ccc(Cl)cc12 | 12.7 µM (inactive) | 12.3 µM (inactive) | 20.1 µM (inactive) | 16.1 µM (inactive) | 17.3 µM (inactive) | 17.7 µM (inactive) | 16.1 µM (inactive) | 18.7 µM (inactive) | 15.2 µM (inactive) | – | 17.5 µM (inactive) | 9.91 µM (inactive) | 23.3 µM (inactive) | 17.4 µM (inactive) | 16.4 µM (inactive) | 19.3 µM (inactive) | 18 µM (inactive) | 18.4 µM (inactive) | 22.3 µM (inactive) | –
Cc1ccc(C)c(NC(=O)C(=O)C2C(=O)N(c3ccccc3)N=C2N)c1 (centres undefined) | > 100 µM (inactive) | > 100 µM (inactive) | – | > 100 µM (inactive) | > 100 µM (inactive) | > 100 µM (inactive) | > 100 µM (inactive) | > 100 µM (inactive) | > 100 µM (inactive) | > 100 µM (inactive) | > 100 µM (inactive) | > 100 µM (inactive) | – | – | > 100 µM (inactive) | > 100 µM (inactive) | – | > 100 µM (inactive) | > 100 µM (inactive) | > 100 µM (inactive)
Cc1ccc(S(=O)(=O)n2c3ccc(Br)cc3c3nc4ccccc4nc32)cc1 | 0.689 µM (active) | – | > 100 µM (inactive) | > 100 µM (inactive) | > 100 µM (inactive) | 0.183 µM (active) | > 100 µM (inactive) | > 100 µM (inactive) | > 100 µM (inactive) | > 100 µM (inactive) | > 100 µM (inactive) | 0.649 µM (active) | > 100 µM (inactive) | – | > 100 µM (inactive) | > 100 µM (inactive) | > 100 µM (inactive) | > 100 µM (inactive) | > 100 µM (inactive) | > 100 µM (inactive)
O=C(NC/C=C/Br)NC1CCNc2ccccc21 (centres undefined) | 76.6 µM (inactive) | 47.6 µM (inactive) | 41 µM (inactive) | 73.8 µM (inactive) | 52.7 µM (inactive) | 38.8 µM (inactive) | 31.3 µM (inactive) | 45 µM (inactive) | 58.3 µM (inactive) | 27.2 µM (inactive) | 42.1 µM (inactive) | 74 µM (inactive) | 52.1 µM (inactive) | – | 21.8 µM (inactive) | 15.7 µM (inactive) | 32.1 µM (inactive) | 38.2 µM (inactive) | 29.2 µM (inactive) | 31.9 µM (inactive)
